# Data: ChEMBL document CHEMBL5154659, “A3 adenosine receptor agonists containing dopamine moieties for enhanced interspecies affinity” (Eur J Med Chem, 2022)
# Tests used:
# [1] = Aqueous solubility of compound at pH 7.4; format: physicochemical
# [2] = target: Voltage-gated inwardly rectifying potassium channel KCNH2 (Homo sapiens, UniProt Q12809); test: Inhibition of human ERG; format: toxicity
# [3] = Half life in Wistar rat at 0.5 mg/kg, iv; format: ADME, organism-based; details: in vivo
# CYP2C19 = CYP2C19 (Homo sapiens, UniProt P33261); test: (§1) Inhibition of CYP2C19 (unknown origin); format: ADME
# CYP2D6 = CYP2D6 (Homo sapiens, UniProt P10635); test: (§2) Inhibition of CYP2D6 (unknown origin); format: ADME
# [4] = Apparent permeability across apical to basolateral side in human Caco-2 cells; format: ADME, cell-based
# [5] = Microsomal stability in mouse plasma assessed as half life; format: ADME, cell-free
# [6] = Microsomal stability in Wistar rat plasma assessed as half life; format: ADME, cell-free
# [7] = Microsomal stability in human plasma assessed as half life; format: ADME, cell-free
# Adenosine receptor A2a [8] = target: T1, Adenosine receptor A2a (Homo sapiens, UniProt P29274); test: Binding affinity to human adenosine A2A receptor expressed in human HEK293 cell membrane at 10 uM by radioligand inhibition assay; format: cell membranes
# Adenosine receptor A1 [9] = target: T2, Adenosine receptor A1 (Homo sapiens, UniProt P30542); test: Displacement of [3H] N6-R-phenylisopropyladenosine from human A1A receptor stably expressed in HEK293 cell membrane by radioligand inhibition assay; format: cell membranes
# T2 sequence (P30542 whole entry): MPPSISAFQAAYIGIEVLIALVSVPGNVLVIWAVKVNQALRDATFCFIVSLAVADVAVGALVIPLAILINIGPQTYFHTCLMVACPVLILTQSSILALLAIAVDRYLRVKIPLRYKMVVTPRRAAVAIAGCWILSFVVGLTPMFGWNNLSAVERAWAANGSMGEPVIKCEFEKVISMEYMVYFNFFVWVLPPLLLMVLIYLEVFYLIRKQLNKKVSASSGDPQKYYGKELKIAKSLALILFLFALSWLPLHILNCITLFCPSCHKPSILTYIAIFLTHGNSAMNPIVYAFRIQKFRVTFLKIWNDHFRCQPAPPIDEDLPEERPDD
# Adenosine receptor A3 [10] = target: T3, Adenosine receptor A3 (Homo sapiens, UniProt P0DMS8); test: Displacement of [125I] N6-(4-amino-3-iodobenzyl)adenosine-5'-N-methyluronamide from human A3A receptor stably expressed in HEK293 cell membrane by radioligand inhibition assay; format: cell membranes
# T3 sequence (P0DMS8 whole entry): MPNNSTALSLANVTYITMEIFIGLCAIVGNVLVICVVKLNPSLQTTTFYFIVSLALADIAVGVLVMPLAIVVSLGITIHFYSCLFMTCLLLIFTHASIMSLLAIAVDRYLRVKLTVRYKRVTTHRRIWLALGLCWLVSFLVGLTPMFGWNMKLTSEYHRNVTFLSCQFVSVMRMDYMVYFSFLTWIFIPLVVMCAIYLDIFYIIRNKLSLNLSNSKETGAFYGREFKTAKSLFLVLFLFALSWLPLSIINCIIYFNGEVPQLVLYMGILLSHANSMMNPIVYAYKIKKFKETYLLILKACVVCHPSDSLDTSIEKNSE
# Adenosine receptor A1 [11] = target: T4, Adenosine receptor A1 (Mus musculus, UniProt Q60612); test: Displacement of [3H] N6-R-phenylisopropyladenosine from mouse A1A receptor stably expressed in HEK293 cell membrane by radioligand inhibition assay; format: cell membranes
# T4 sequence (Q60612 whole entry): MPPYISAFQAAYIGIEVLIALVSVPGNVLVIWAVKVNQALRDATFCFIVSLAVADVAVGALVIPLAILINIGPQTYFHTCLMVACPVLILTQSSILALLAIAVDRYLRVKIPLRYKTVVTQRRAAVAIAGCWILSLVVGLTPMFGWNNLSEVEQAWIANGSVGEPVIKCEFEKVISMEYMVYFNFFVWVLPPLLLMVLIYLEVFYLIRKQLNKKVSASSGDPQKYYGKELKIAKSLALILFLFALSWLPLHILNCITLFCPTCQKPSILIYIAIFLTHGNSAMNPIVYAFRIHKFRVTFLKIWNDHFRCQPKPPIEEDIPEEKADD
# Adenosine receptor A3 [12] = target: T5, Adenosine receptor A3 (Mus musculus, UniProt Q61618); test: Displacement of [125I] N6-4-amino-3-iodobenzyl adenosine 5-N-methyluronamide from mouse A3A receptor stably expressed in HEK293 cell membrane by radioligand inhibition assay; format: cell membranes
# T5 sequence (Q61618 whole entry): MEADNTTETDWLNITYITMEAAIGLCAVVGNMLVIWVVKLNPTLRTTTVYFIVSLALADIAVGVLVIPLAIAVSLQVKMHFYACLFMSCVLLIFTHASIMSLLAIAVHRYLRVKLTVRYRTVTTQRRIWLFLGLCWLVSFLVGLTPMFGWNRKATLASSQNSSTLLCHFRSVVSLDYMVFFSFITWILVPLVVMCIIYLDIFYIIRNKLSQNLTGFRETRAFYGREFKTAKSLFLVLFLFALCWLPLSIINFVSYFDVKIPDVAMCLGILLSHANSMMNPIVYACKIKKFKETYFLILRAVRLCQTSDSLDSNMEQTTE
# [13] = Oral bioavailability in Wistar rat at 3 mg/kg; format: ADME, organism-based; details: in vivo
# Adenosine receptor A2a [14] = target: T1, Adenosine receptor A2a; test: Displacement of [3H]-2-p-2-(carboxyethyl)phenyl-ethylamino-5'-N-ethylcarboxamidoadenosine from human A2A receptor stably expressed in HEK293 cell membrane by radioligand inhibition assay; format: cell membranes
# [15] = Stability of the compound in simulated intestinal fluid assessed as parent compound remaining at 120 mins; format: ADME; details: simulated gi fluid, 2 h
# [16] = Stability of the compound in simulated gastric fluid assessed as parent compound remaining at 120 mins; format: ADME; details: simulated gi fluid, 2 h
# Cytochrome P450 1A2 = target: T6, Cytochrome P450 1A2 (Homo sapiens, UniProt P05177); test: Inhibition of CYP1A2 (unknown origin); format: ADME
# T6 sequence (P05177 whole entry): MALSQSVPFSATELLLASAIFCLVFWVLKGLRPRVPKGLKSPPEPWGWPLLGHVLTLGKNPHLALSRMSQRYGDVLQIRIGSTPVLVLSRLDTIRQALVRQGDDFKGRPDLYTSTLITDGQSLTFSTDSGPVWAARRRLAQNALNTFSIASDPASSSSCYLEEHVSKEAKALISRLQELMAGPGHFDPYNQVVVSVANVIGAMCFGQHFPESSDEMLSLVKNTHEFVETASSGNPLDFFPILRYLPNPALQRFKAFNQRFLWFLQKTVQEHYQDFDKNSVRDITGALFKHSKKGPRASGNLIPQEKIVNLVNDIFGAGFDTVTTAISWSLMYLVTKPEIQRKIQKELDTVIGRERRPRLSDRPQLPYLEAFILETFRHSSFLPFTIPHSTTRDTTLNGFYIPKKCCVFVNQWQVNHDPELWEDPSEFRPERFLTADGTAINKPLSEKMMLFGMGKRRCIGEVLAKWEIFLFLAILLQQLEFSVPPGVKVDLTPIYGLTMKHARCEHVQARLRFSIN
# Cytochrome P450 2C9 = Cytochrome P450 2C9 (Homo sapiens, UniProt P11712); test: Inhibition of CYP2C9 (unknown origin); format: ADME
# Cytochrome P450 2C19 = Cytochrome P450 2C19 (Homo sapiens, UniProt P33261); test: as §1; format: ADME
# Cytochrome P450 2D6 = Cytochrome P450 2D6 (Homo sapiens, UniProt P10635); test: as §2; format: ADME
# Cytochrome P450 3A4 = Cytochrome P450 3A4 (Homo sapiens, UniProt P08684); test: Inhibition of CYP3A4 (unknown origin); format: ADME
# [17] = Stability in human plasma assessed as parent compound remaining measured after 120 mins; format: ADME, cell-free; details: 2 h
# [18] = Stability in Wistar rat plasma assessed as parent compound remaining measured after 120 mins; format: ADME, cell-free; details: 2 h
# [19] = Stability in mouse plasma assessed as parent compound remaining measured after 120 mins; format: ADME, cell-free; details: 2 h
# [20] = Oral bioavailability in Wistar rat at 10 mg/kg; format: ADME, organism-based; details: in vivo
# [21] = target: T7, Adenosine receptor A1 (Homo sapiens) (UniProt P30542); test: Binding affinity to human adenosine A1A receptor expressed in human HEK293 cell membrane at 10 uM by radioligand inhibition assay; format: cell membranes
# T7 sequence (whole entry): T2 sequence (P30542 whole entry)
# [22] = Efflux ratio of permeability in human Caco2 cells; format: ADME, cell-based; details: caco-2
# Sequence of Voltage-gated inwardly rectifying potassium channel KCNH2 (Q12809 whole entry): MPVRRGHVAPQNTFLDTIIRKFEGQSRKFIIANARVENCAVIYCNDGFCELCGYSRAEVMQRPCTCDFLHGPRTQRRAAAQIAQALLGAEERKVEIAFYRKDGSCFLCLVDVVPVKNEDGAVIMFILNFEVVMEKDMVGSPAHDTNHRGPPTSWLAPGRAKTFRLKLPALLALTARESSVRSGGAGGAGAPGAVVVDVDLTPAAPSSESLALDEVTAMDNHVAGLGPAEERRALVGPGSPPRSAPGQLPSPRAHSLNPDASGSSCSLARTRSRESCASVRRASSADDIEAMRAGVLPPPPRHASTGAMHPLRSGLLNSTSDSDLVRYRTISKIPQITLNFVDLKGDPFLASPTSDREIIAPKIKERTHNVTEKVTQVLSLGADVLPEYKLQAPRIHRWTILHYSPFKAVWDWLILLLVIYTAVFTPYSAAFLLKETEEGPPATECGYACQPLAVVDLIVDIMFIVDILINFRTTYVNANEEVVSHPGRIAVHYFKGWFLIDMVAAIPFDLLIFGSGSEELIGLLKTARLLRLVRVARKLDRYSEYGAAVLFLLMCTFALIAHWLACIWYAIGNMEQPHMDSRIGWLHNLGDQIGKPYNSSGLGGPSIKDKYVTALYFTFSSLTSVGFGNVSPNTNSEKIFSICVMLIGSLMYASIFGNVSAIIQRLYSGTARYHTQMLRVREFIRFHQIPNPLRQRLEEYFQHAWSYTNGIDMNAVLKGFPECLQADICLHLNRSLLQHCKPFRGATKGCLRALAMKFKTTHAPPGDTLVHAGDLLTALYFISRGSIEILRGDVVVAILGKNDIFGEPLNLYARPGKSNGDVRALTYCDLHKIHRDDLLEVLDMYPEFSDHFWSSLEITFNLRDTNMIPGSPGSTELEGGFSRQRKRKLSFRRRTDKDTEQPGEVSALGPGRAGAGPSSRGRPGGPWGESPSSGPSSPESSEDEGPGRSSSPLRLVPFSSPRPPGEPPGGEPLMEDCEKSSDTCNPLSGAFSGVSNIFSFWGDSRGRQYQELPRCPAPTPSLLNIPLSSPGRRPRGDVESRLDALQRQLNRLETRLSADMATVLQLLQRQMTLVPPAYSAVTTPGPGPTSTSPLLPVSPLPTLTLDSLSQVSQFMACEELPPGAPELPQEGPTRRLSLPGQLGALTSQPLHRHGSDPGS
# T1 sequence (P29274 whole entry): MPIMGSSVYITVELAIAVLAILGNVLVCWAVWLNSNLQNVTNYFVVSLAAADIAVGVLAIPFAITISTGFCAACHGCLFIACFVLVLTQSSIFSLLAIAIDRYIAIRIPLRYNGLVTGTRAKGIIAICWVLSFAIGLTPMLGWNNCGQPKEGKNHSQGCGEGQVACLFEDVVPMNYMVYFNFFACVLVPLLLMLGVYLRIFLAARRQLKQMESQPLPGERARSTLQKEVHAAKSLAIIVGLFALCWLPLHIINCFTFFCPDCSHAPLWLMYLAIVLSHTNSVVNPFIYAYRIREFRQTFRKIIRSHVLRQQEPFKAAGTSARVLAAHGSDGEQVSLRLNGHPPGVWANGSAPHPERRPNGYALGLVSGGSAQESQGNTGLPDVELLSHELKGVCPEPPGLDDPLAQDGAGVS
# Sequence of Cytochrome P450 2C19 (P33261 whole entry): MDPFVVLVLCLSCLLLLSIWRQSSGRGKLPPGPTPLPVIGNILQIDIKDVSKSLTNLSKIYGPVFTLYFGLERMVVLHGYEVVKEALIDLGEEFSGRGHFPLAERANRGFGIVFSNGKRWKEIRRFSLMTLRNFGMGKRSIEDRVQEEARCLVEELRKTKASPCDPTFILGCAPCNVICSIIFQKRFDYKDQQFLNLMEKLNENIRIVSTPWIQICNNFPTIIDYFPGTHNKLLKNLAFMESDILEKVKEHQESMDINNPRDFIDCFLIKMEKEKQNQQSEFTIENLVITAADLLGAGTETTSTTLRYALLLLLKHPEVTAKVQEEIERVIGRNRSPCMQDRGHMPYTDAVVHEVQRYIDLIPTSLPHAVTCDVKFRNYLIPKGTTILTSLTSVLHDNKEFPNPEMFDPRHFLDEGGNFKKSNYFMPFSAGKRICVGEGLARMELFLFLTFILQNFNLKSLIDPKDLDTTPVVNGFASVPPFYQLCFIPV
# Sequence of Cytochrome P450 2D6 (P10635 whole entry): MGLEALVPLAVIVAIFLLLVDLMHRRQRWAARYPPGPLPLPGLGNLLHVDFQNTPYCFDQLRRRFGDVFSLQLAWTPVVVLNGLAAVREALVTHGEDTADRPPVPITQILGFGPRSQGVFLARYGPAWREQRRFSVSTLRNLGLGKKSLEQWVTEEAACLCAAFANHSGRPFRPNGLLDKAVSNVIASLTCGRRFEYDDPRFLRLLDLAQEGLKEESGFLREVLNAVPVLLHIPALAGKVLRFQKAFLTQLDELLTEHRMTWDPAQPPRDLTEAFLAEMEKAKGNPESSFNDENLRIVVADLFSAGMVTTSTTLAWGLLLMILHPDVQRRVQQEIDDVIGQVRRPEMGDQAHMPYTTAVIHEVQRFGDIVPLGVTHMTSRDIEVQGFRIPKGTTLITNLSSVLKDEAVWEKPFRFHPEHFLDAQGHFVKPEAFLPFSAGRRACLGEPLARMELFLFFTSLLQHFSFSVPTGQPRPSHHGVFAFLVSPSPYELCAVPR
# Sequence of Cytochrome P450 3A4 (P08684 whole entry): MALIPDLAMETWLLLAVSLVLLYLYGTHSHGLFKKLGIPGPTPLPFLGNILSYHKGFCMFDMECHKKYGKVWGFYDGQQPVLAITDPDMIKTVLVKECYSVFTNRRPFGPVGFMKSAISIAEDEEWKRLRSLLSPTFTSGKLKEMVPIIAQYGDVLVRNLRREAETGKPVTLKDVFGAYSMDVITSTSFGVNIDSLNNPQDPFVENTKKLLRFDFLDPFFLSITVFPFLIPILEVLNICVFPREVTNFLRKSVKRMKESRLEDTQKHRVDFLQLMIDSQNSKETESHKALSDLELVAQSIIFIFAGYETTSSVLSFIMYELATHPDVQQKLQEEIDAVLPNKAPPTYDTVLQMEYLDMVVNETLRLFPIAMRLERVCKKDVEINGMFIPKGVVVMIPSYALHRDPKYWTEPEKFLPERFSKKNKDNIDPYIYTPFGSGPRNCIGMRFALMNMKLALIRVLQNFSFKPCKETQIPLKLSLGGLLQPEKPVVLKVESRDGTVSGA
# Sequence of Cytochrome P450 2C9 (P11712 whole entry): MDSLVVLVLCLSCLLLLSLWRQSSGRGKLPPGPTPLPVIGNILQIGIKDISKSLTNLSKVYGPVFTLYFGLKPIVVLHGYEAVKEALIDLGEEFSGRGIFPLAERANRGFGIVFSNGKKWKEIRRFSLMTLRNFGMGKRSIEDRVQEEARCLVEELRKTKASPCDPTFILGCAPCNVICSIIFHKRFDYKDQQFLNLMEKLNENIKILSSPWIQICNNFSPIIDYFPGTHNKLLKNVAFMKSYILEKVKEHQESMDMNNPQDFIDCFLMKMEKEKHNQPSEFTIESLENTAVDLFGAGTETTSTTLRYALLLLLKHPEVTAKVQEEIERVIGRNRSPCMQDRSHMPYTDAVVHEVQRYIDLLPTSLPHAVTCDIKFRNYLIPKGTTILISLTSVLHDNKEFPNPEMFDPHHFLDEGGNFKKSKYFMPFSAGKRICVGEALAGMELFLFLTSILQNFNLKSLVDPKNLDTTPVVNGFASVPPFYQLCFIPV
# Sequence of CYP2C19 (P33261 whole entry): as the sequence (P33261 whole entry) above
# Sequence of CYP2D6 (P10635 whole entry): as the sequence (P10635 whole entry) above
smiles,measurement,setting,value
COc1cc(CCNc2nc(C#Cc3ccccc3)nc3c2ncn3[C@H]2[C@H](O)[C@H](O)[C@@H]3C[C@@H]32)ccc1O,solubility,"[1]; aqueous, read-out: solubility",13 µg/mL
same,IC50,[2],5390 nM
same,half-life,[3],16.4 min
same,IC50,CYP2C19,> 30000 nM
same,IC50,CYP2D6,> 30000 nM
same,Papp A→B,[4],2.71 ×10⁻⁶ cm/s
same,half-life,[5],7.92 min
same,half-life,[6],15.7 min
same,half-life,[7],16.3 min
CNC(=O)[C@@]12C[C@@H]1[C@@H](n1cnc3c(NCCc4ccccc4)nc(I)nc31)[C@H](O)[C@@H]2O,inhibition,Adenosine receptor A2a [8],39%
same,Ki,Adenosine receptor A1 [9],574 nM
same,Ki,Adenosine receptor A3 [10],4.48 nM
same,Ki,Adenosine receptor A1 [11],272 nM
same,Ki,Adenosine receptor A3 [12],1.69 nM
CNC(=O)[C@@]12C[C@@H]1[C@@H](n1cnc3c(NCCc4ccc(OC)c(O)c4)nc(OCC(C)C)nc31)[C@H](O)[C@@H]2O,bioavailability,[13],4.34%
same,solubility,[1]; buffer,167 µg/mL
same,IC50,[2],16500 nM
same,half-life,[3],101 min
same,Ki,Adenosine receptor A2a [14],588 nM
same,Stability,[15],64.5%
same,Stability,[16],100%
same,IC50,Cytochrome P450 1A2,250 nM
same,IC50,Cytochrome P450 2C9,> 30000 nM
same,IC50,Cytochrome P450 2C19,> 30000 nM
same,IC50,Cytochrome P450 2D6,> 30000 nM
same,IC50,Cytochrome P450 3A4,830 nM
same,Stability,[17],56.9%
same,Stability,[18],84.6%
same,Stability,[19],94.6%
same,half-life,[5],9.15 min
same,half-life,[6],22.5 min
same,half-life,[7],6.51 min
same,Ki,Adenosine receptor A1 [11],317 nM
same,Ki,Adenosine receptor A3 [12],17.6 nM
CNC(=O)[C@@]12C[C@@H]1[C@@H](n1cnc3c(NCCc4ccc(OC)c(OC)c4)nc(C#Cc4ccc(Cl)s4)nc31)[C@H](O)[C@@H]2O,solubility,[1]; buffer,3.84 µg/mL
same,bioavailability,[20],1.88%
same,IC50,[2],3650 nM
same,half-life,[3],43.9 min
same,inhibition,[21],0%
same,inhibition,Adenosine receptor A2a [8],16%
same,Ki,Adenosine receptor A3 [10],8.67 nM
same,Stability,[15],100%
same,Stability,[16],100%
same,IC50,Cytochrome P450 1A2,430 nM
same,IC50,Cytochrome P450 2C9,> 30000 nM
same,IC50,Cytochrome P450 2C19,15100 nM
same,IC50,Cytochrome P450 2D6,17700 nM
same,IC50,Cytochrome P450 3A4,780 nM
same,Stability,[17],100%
same,Stability,[18],100%
same,Stability,[19],100%
same,Papp,[4],0.44 10^-6 cm/s
same,Ratio,[22],46.6
same,half-life,[5],6.72 min
same,half-life,[6],11.5 min
same,half-life,[7],2 min
same,Ki,Adenosine receptor A1 [11],7050 nM
same,Ki,Adenosine receptor A3 [12],2.21 nM
